Laboratory results published in ChEMBL document CHEMBL3861949 (Medchemcomm, 2016).

How the values were obtained:
[1] = Cytotoxicity against human MRC5 cells; assay type: toxicity, cell-based
[2] = Inhibition of Plasmodium falciparum Lysyl-tRNA ligase expressed in Escherichia coli Tuner (DE3) cells assessed as suppression of L-lysine-tRNA(Lys) formation in presence of AMP-Alexa633 tracer after 4 hrs by fluorescence polarization assay
[3] = Selectivity ratio of IC50 for human Lysyl-tRNA ligase to IC50 for Plasmodium falciparum Lysyl-tRNA ligase
[4] = test system: Saccharomyces cerevisiae; assay: Ratio of IC50 for Saccharomyces cerevisiae wild type KRS1 to IC50 for Saccharomyces cerevisiae KRS1 Gln324Val mutant
[5] = test system: Saccharomyces cerevisiae; assay: Ratio of IC50 for Saccharomyces cerevisiae wild type KRS1 to IC50 for Saccharomyces cerevisiae KRS1 Thr340Ser mutant
[6] = test system: Saccharomyces cerevisiae; assay: Ratio of IC50 for Saccharomyces cerevisiae wild type KRS1 to IC50 for Saccharomyces cerevisiae KRS1 Gln324Val/Thr340Ser mutant
[7] = test system: Plasmodium berghei; assay: Antimalarial activity against liver stage of Plasmodium berghei ANKA; assay type: functional
[8] = Inhibition of Escherichia coli TrpRS assessed as suppression of L-[5-3H]tryptophanyl-tRNA formation after 10 mins by liquid scintillation counting method
[9] = Inhibition of bovine liver TrpRS assessed as suppression of L-[5-3H]tryptophanyl-tRNA formation after 10 mins by liquid scintillation counting method; parameters: species or system Bos taurus
[10] = biological target: T1, Isoleucine--tRNA ligase (Thermus thermophilus (strain HB8 / ATCC 27634 / DSM 579), UniProt P56690); assay: Inhibition of recombinant Thermus thermophilus HB8 wild type IleRS assessed as suppression of L-[14C]isoleucyl-tRNA(Ile) formation
T1 sequence (P56690 whole entry): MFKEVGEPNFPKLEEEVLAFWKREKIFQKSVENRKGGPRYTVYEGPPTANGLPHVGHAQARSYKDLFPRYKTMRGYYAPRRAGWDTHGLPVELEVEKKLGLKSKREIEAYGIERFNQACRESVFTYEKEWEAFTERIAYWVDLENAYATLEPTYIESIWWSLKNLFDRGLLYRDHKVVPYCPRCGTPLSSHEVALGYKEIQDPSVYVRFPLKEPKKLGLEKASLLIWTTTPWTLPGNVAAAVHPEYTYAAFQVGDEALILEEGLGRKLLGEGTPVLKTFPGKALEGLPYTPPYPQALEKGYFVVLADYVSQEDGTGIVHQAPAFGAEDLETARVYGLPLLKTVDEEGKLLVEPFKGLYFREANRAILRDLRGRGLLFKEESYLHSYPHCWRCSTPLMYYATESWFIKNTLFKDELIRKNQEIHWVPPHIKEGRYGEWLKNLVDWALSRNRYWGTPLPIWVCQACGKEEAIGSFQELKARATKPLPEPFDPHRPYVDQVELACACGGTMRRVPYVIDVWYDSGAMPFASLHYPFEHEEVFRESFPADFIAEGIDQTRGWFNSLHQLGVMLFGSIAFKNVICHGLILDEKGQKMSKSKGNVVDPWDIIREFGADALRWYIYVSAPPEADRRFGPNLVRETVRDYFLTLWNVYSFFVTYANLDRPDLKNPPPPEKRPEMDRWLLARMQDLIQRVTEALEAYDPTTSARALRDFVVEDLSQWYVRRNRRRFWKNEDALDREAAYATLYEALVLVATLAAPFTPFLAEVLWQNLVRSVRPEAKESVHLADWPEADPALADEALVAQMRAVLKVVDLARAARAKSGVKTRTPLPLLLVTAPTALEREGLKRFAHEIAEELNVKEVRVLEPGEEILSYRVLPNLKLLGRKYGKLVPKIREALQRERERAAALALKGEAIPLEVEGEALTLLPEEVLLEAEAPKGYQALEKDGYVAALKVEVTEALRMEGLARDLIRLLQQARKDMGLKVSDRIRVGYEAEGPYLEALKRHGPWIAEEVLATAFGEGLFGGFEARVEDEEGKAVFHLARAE

[11] = biological target: Isoleucine--tRNA ligase (Thermus thermophilus (strain HB8 / ATCC 27634 / DSM 579), UniProt P56690, L583F); assay: Inhibition of recombinant Thermus thermophilus HB8 IleRS L583F mutant assessed as suppression of L-[14C]isoleucyl-tRNA(Ile) formation
[12] = biological target: Isoleucine--tRNA ligase (Thermus thermophilus (strain HB8 / ATCC 27634 / DSM 579), UniProt P56690, H581L/L583H); assay: Inhibition of recombinant Thermus thermophilus HB8 IleRS H581L/L583H double mutant assessed as suppression of L-[14C]isoleucyl-tRNA(Ile) formation
[13] = biological target: Isoleucine--tRNA ligase (Thermus thermophilus (strain HB8 / ATCC 27634 / DSM 579), UniProt P56690, H581S/L583I); assay: Inhibition of recombinant Thermus thermophilus HB8 IleRS H581S/L583I double mutant assessed as suppression of L-[14C]isoleucyl-tRNA(Ile) formation
[14] = biological target: Isoleucine--tRNA ligase (Thermus thermophilus (strain HB8 / ATCC 27634 / DSM 579), UniProt P56690, H581N/L583F); assay: Inhibition of recombinant Thermus thermophilus HB8 IleRS H581N/L583F double mutant assessed as suppression of L-[14C]isoleucyl-tRNA(Ile) formation
Chain of Isoleucine--tRNA ligase (Thermus thermophilus (strain HB8 / ATCC 27634 / DSM 579), UniProt P56690, H581N/L583F) (P56690 whole entry H581N/L583F): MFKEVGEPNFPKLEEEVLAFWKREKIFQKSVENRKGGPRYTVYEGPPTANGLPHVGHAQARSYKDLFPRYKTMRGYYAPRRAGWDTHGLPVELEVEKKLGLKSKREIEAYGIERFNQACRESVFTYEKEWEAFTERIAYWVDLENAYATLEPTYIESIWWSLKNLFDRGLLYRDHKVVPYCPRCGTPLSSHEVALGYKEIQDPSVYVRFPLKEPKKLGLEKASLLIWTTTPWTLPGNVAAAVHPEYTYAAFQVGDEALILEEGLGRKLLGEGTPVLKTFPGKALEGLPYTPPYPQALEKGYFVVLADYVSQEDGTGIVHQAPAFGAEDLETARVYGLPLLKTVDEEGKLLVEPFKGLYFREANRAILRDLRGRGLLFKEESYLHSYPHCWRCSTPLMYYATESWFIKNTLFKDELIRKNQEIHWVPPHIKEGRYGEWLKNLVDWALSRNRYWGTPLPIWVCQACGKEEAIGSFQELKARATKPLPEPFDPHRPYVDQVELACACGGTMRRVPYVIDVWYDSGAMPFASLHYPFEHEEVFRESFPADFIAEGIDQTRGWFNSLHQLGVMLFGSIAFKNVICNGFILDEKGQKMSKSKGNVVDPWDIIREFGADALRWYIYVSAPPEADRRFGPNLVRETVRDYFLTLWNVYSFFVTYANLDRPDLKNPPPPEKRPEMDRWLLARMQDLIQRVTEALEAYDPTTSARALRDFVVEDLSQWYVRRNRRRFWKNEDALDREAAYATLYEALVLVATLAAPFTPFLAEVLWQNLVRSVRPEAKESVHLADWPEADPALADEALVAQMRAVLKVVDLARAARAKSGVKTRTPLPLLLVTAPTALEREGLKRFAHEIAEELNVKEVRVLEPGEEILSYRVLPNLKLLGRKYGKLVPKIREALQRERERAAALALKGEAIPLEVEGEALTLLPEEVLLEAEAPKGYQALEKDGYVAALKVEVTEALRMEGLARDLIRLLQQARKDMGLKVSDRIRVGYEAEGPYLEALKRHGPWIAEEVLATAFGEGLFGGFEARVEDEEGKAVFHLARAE

Chain of Isoleucine--tRNA ligase (Thermus thermophilus (strain HB8 / ATCC 27634 / DSM 579), UniProt P56690, H581L/L583H) (P56690 whole entry H581L/L583H): as the sequence (P56690 whole entry H581N/L583F) above, with N581L, F583H counted along it
Chain of Isoleucine--tRNA ligase (Thermus thermophilus (strain HB8 / ATCC 27634 / DSM 579), UniProt P56690, L583F) (P56690 whole entry L583F): as the sequence (P56690 whole entry H581N/L583F) above, with N581H counted along it
Chain of Isoleucine--tRNA ligase (Thermus thermophilus (strain HB8 / ATCC 27634 / DSM 579), UniProt P56690, H581S/L583I) (P56690 whole entry H581S/L583I): as the sequence (P56690 whole entry H581N/L583F) above, with N581S, F583I counted along it

For `C[C@@H]1C[C@H](C)C[C@H](C)[C@@H](O)CC(=O)O[C@H]([C@@H]2CCC[C@H]2C(=O)OCc2cn(CSc3ccccc3)nn2)C/C=C/C=C(/C#N)[C@H](O)[C@@H](C)C1`, the Activity [1] was 16800 ng/mL.

In the case of `C[C@H]1CCC[C@H](CC2Cc3cc(O)cc(O)c3C(=O)O2)O1` (stereo partly specified), the IC50 [2] is reported as 0.04 µM, the Ratio IC50 [3] is reported as over 100 and the Ratio IC50 [4] is reported as 5.7. It also gave a Ratio IC50 [5] of 10.4 and a Ratio IC50 [6] of 38.7.

For `O=c1c2cc(Cl)c(Br)cc2ncn1C[C@@H](O)C[C@H]1NCCC[C@@H]1O`, the EC50 [7] was 0.014 µM.

For `C[C@@H]1C[C@H](C)C[C@H](C)[C@@H](O)CC(=O)O[C@H]([C@@H]2CCC[C@H]2C(=O)O)C/C=C/C=C(/C#N)[C@H](O)[C@@H](C)C1` [BORRELIDIN], the Activity [1] was 201 ng/mL.

Compound `O=C(CC1NCCCC1O)Cn1cnc2cc(Br)c(Cl)cc2c1=O` (stereo unspecified) [HALOFUGINONE] has an EC50 [7] of 0.017 µM.

`CNC1=NC(=O)[C@H]([C@H](C)c2c[nH]c3ccccc23)O1` [INDOMYCIN] showed an IC50 [8] of 0.00925 µM and an IC50 [9] of 4040 µM.

With `C/C(=C\C(=O)OCCCCCCCCC(=O)O)C[C@@H]1OC[C@H](C[C@@H]2O[C@H]2[C@@H](C)[C@H](C)O)[C@@H](O)[C@H]1O` [MUPIROCIN] the Ki [10] was 0.25 µM, the Ki [11] was 0.06 µM and the Ki [12] was 2.31 µM. For the same compound, the Ki [13] was 15 µM and the Ki [14] was 2.73 µM.
